Assay [1] deals with MDA-MB-231. To be noted: triple negative breast cancer cell line; values as low as; cited from earlier work.
Assay [2] relates to HCT116 cells. Briefly: MTT cell viability assay, HCT116. As to conditions: Homo sapiens, HCT-116, 72 h, mean ± SD of three experiments. Format: cell-based. As to the method: (§1) Liver cancer (HepG2), colon cancer (HCT116), lung cancer (A549), breast cancer (MCF7) and normal lung (MRC5) cells were obtained from ATCC (Rockville, USA). Cells were cultured in RPMI-1640 enriched with 10% foetal calf serum and 50 µg/ml gentamycin. They were incubated at 37 °C in a humidified environment containing 5% CO2 and passaged 2–3 times/week.
(§2) The MTT assay was conducted as previously reported. Cell lines were seeded at 5x10^4 cells/well and incubated for 24 h. CFSB was added in twelve concentrations, alongside vehicle controls and vinblastine sulphate as a positive control. After 72 h of incubation, cell viability was assessed using the MTT assay. Media was replaced, followed by the addition of MTT solution. DMSO was later added and optical density was measured at 590 nm using a microplate reader (TECAN, USA). IC50 values were calculated using Graphpad Prism (San Diego, USA). The experiment was repeated three times.
On the technique in general: Tetrazolium assays rely on reduction of a dye to a coloured formazan, in cell work by metabolically active cells.

Assay [3] has as its system A549 cells. Briefly: MTT cell viability assay, A549. Format: cell-based. To be noted: Homo sapiens, 72 h, mean ± SD of three experiments.
Protocol: The MTT assay was conducted as previously reported[20]. Cell lines were seeded at 5x10^4 cells/well and incubated for 24 h. […] After 72 h of incubation, cell viability was assessed using the MTT assay. Media was replaced, followed by the addition of MTT solution. DMSO was later added and optical density was measured at 590 nm using a microplate reader (TECAN, USA). IC50 values were calculated using Graphpad Prism (San Diego, USA). The experiment was repeated three times.
Assay [4] deals with HepG2 cells. Briefly: MTT cell viability assay, HepG2. Format: cell-based. To be noted: Homo sapiens, 72 h, mean ± SD of three experiments. The procedure: as §1, §2
Assay [5] relates to MCF7 cells. Briefly: MTT cell viability assay, MCF7. Format: cell-based. As to conditions: Homo sapiens, 72 h, mean ± SD of three experiments. As to the method:
as §1, §2

Assay [6] has as its target T1, CDK2 (Homo sapiens, UniProt P24941).
T1 construct: purchased BPS Bioscience
Briefly: CDK2 kinase assay. Format: biochemical. To be noted: mean ± SD of three experiments. As to the method: (§3) CDK2 kinase assay was performed using the CDK2 kinase assay kit (BPS Bioscience, USA) as previously described. The EGFR kinase assay was performed in 96-well plates coated with PGT (poly l-glutamic acid l-tyrosine, Sigma Aldrich, USA) using the EGFR kinase assay kit (BPS Bioscience, USA) and was conducted as previously described. The VEGFR-2 kinase assay was carried out in 96-well streptavidin coated plate using recombinant human VEGFR-2/KDR ELISA kit as previously described. The tropomyosin receptor kinases (TRK) inhibition assay was performed using TrkA assay kit (BPS Bioscience, USA) as per the manufacturer’s instructions. Topoisomerase II assay was performed using the human topoisomerase II relaxation assay kit (Inspiralis, UK) which involved relaxing supercoiled pBR322 DNA substrate by the enzyme. The relaxation assay was conducted as per the manufacturer’s instructions and as previously reported.

In assay [7] the target is T2, EGFR (Homo sapiens, UniProt P00533).
T2 construct: purchased BPS Bioscience
Briefly: EGFR kinase assay. The class given is biochemical. As to conditions: mean ± SD of three experiments. The procedure:
as §3

In assay [8] the target is T3, VEGFR (Homo sapiens, UniProt P35968).
T3 construct: purchased
Briefly: VEGFR-2 kinase assay. The class given is biochemical. As to conditions: mean ± SD of three experiments. As to the method: as §3

Assay [9] deals with T4, TrkA (Homo sapiens, UniProt P04629).
T4 construct: purchased BPS Bioscience
Briefly: TrkA inhibition assay. Format: biochemical. To be noted: mean ± SD of three experiments. The procedure: as §3

The target in assay [10] is human topoisomerase II. Briefly: Human topoisomerase II relaxation assay (pBR322). The class given is biochemical. To be noted: relaxation of supercoiled pBR322 DNA; mean ± SD of three experiments. As to the method:
as §3
The potential inhibition of topoisomerase II by CFSB was evaluated using human topoisomerase II assay. This assay involves measuring the ability of topoisomerase II enzyme to relax supercoiled DNA (pBR322)[68].

Assay [11] concerns the target T5, tubulin (Sus scrofa, UniProt P02550+P02554).
T5 construct: polymerisation of tubulin, isolated from porcine brain tissue; purchased Cytoskeleton, Inc; host or cells: porcine brain tissue
Briefly: Tubulin polymerisation assay. To be noted: fluorescence, tubulin from porcine brain; mean ± SD of three experiments. The class given is biochemical. As to the method: The assay was performed using the tubulin polymerisation assay kit (Cytoskeleton, Inc, USA) as per the manufacturer’s instructions and as previously reported. […] Polymerisation dose-response curves were obtained by measuring changes in fluorescence intensity at each compound concentration. Fluorescence was measured at an excitation of 360 nm and emission of 450 nm using a Tecan-spark reader.
A tubulin polymerisation assay was used in order to assess the potential of CFSB as a tubulin polymerisation inhibitor. The assay involved observing the polymerisation of tubulin, isolated from porcine brain tissue, in the presence of CFSB. Changes in polymerisation were monitored via changes in fluorescence intensity.

Molecules are shown by their SMILES. Where “and” joins values, the source holds several entries; their conditions need not be identical. Equal entries are not always repeated.

T5 sequence (P02554 whole entry): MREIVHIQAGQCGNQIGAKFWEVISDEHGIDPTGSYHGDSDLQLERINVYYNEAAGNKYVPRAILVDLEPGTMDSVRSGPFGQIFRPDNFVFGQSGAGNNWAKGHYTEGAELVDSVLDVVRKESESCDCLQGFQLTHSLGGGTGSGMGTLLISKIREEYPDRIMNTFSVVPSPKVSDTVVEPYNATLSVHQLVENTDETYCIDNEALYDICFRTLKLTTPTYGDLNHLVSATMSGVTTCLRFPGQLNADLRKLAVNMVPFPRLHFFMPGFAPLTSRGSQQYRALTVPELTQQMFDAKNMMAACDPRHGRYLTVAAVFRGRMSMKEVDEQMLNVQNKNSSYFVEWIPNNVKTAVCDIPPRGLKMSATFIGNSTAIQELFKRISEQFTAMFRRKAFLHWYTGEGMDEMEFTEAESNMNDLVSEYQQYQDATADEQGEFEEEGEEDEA
T5 sequence (P02550 whole entry): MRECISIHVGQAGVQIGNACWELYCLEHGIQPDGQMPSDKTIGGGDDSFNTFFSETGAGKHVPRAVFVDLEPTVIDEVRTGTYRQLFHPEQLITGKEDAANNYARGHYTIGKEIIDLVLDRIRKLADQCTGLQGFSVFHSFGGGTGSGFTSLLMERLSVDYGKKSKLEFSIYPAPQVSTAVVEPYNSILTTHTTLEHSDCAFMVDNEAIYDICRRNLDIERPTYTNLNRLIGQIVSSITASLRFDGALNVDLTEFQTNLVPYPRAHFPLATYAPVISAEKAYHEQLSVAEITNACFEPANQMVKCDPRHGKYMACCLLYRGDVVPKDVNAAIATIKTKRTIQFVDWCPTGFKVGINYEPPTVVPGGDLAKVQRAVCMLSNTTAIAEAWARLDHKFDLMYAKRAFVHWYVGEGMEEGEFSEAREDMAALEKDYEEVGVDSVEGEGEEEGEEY
T3 sequence (P35968 20-1356): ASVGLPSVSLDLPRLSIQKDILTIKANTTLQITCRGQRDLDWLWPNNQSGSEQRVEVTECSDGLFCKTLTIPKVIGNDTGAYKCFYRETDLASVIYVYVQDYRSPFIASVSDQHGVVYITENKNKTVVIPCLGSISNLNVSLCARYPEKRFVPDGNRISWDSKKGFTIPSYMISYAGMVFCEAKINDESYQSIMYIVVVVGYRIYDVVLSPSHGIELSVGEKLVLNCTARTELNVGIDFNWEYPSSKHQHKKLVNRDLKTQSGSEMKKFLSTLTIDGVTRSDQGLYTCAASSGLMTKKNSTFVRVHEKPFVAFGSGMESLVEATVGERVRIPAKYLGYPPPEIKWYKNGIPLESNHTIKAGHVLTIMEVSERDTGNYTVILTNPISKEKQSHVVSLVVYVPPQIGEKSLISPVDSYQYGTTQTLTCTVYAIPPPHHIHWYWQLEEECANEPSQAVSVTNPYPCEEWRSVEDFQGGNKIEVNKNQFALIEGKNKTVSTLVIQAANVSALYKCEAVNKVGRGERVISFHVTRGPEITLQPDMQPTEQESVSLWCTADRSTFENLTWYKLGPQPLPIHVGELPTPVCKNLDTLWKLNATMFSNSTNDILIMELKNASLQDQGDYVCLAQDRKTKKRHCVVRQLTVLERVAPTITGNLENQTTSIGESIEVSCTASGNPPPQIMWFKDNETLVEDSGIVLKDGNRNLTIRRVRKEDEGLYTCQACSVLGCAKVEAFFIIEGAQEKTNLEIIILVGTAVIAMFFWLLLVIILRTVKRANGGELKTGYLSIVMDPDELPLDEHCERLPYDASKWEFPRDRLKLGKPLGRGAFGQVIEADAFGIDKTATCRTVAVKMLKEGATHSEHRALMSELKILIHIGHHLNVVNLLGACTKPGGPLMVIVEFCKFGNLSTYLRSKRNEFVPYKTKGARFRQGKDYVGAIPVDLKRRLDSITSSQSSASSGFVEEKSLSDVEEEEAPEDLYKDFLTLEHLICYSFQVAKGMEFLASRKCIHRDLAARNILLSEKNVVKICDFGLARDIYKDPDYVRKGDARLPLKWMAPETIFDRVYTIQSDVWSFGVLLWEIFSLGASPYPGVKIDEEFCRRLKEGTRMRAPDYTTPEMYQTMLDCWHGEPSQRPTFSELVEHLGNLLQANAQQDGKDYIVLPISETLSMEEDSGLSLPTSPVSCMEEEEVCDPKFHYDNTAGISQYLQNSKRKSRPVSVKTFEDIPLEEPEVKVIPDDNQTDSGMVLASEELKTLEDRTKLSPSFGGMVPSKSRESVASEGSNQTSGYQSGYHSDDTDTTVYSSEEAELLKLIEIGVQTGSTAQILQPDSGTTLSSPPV
T4 sequence (P04629 33-796): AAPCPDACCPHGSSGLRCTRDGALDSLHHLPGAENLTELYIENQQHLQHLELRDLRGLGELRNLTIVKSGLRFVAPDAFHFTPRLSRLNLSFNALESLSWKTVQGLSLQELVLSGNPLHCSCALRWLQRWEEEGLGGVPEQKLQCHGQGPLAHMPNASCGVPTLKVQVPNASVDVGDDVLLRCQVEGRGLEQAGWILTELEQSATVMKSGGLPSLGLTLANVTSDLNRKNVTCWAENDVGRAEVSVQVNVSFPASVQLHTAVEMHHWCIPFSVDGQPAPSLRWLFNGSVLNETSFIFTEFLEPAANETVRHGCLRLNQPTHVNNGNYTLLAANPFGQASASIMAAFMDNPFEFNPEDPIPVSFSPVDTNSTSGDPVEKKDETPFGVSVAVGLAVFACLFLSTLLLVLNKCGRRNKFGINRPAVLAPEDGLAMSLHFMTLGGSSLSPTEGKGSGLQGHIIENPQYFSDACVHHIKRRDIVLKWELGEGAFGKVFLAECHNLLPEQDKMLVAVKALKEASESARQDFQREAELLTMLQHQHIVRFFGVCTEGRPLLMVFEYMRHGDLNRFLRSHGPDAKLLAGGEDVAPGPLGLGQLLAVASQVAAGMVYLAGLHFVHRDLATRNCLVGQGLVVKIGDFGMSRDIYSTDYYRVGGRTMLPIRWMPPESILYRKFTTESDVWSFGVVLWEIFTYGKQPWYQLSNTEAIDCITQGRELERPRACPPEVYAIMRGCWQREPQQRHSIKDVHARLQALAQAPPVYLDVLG
T2 sequence (P00533 25-1210): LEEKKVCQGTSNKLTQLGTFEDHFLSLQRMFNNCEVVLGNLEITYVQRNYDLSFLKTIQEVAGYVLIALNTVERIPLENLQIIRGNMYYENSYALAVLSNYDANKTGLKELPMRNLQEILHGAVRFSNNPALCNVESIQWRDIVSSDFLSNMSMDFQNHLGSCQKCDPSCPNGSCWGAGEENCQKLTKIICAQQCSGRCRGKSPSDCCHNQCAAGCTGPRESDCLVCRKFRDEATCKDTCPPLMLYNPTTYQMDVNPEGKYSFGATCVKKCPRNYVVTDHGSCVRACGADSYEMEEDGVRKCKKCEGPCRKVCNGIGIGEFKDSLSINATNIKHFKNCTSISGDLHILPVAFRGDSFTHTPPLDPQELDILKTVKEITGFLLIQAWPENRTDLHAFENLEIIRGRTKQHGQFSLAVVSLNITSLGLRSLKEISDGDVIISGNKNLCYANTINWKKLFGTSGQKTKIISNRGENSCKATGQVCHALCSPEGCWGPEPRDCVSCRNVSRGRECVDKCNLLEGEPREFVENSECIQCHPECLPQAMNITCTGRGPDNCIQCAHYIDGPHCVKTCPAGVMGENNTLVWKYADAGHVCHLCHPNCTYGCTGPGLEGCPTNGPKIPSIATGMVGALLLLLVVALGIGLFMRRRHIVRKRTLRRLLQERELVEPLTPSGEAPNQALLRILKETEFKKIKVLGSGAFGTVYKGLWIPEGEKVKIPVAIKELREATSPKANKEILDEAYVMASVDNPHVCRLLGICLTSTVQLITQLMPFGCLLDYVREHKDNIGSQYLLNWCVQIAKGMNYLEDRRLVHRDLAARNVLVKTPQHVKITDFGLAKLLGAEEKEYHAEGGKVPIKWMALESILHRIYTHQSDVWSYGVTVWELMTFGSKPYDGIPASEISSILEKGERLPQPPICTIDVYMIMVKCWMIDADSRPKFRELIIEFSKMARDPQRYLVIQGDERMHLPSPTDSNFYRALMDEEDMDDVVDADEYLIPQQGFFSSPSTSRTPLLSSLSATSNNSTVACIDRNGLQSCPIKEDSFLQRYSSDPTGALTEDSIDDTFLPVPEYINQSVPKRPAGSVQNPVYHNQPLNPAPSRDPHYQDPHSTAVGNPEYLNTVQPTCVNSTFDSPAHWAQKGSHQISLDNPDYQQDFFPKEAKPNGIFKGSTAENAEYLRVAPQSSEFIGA

For the molecule `O=C(COc1cc(O)c2c(=O)cc(-c3ccccc3)oc2c1)N/N=C/c1ccc(O)cc1O` [Chrysin-De-allyl-Pac-1], the IC50 – broadly, the concentration that gives 50% inhibition – in assay [1] was no less than 5.98 µM.

Turning to `COc1cccc2c1C(=O)c1c(O)c3c(c(O)c1C2=O)C[C@@](O)(C(=O)CO)C[C@@H]3O[C@H]1C[C@H](N)[C@H](O)[C@H](C)O1` [Doxorubicin], half-maximal inhibition in assay [2] (IC50) was put at 3.16 ± 0.38 µM.

For `CC[C@]1(O)C[C@@H]2CN(CCc3c([nH]c4ccccc34)[C@@](C(=O)OC)(c3cc4c(cc3OC)N(C)[C@H]3[C@@](O)(C(=O)OC)[C@H](OC(C)=O)[C@]5(CC)C=CCN6CC[C@]43[C@@H]65)C2)C1` [Vinblastine sulphate], the IC50 in [3] was 4.15 ± 0.31 µM; in assay [4], 0.89 ± 0.1 µM; in [5] it was 2.27 ± 0.25 µM; in [2], 1.75 ± 0.19 µM.

With `Oc1cc(O)c2c(=N[C]34[CH]5[CH]6[CH]7[CH]3[Fe]6754389%10[CH]4[CH]3[CH]8[CH]9[CH]4%10)cc(-c3ccccc3)oc2c1` (stereo not drawn) [CFSB, cyclopenta-2,4-dien-1-yl(5-((5,7-dihydroxy-2-phenyl-4H-chromen-4-ylidene)amino)cyclopenta-2,4-dien-1-yl)iron], the IC50 in assay [6] is greater than 100 µM; in assay [7], greater than 100 µM; in assay [8], greater than 100 µM; in assay [9] it was greater than 100 µM; in assay [10], 20 µM and 20.1 µM; in assay [11] it was 76 µM and 76.4 µM.
